The test system of assay [1] is Aphis craccivora. Nature of the assay: Insecticidal activity against Aphis craccivora (cowpea aphid) in tender shoots of soybean assessed as mortality at 500 mg/L measured after 1 days (reference value: 4.3%). The assay is classed as functional. To be noted: 24 h.
Assay [2] relates to Aphis craccivora. Nature of the assay: Insecticidal activity against Aphis craccivora (cowpea aphid) in tender shoots of soybean assessed as mortality measured after 1 days. To be noted: 24 h. The assay is classed as functional.

This passage reports mortality and LC50 results from ChEMBL document CHEMBL3046612, “Design, multicomponent synthesis, and bioactivities of novel neonicotinoid analogues with 1,4-dihydropyridine scaffold” (2010).

As usually defined, the mortality is the percentage killed. As usually defined, the LC50 is the concentration that kills 50% of the test population.

Turning to `N#CC1=C(N)N2CCN(Cc3ccc(Cl)nc3)C2=C([N+](=O)[O-])C1c1ccccc1` (stereo unspecified), the mortality at 500 µg/mL with Aphis craccivora [1] came out at 83.1%.
Consider `Cc1c(F)cccc1C1C(C#N)=C(N)N2CCN(Cc3ccc(Cl)nc3)C2=C1[N+](=O)[O-]` (stereo unspecified), for which the mortality at 500 µg/mL in the assay with Aphis craccivora [1] turned out to be 100%. Besides, the LC50 in the assay on Aphis craccivora [2] came out at 3.45 µM.
In the case of `COc1ccc(C2C(C#N)=C(N)N3CCN(Cc4ccc(Cl)nc4)C3=C2[N+](=O)[O-])cc1` (stereo unspecified), the mortality at 500 µg/mL with Aphis craccivora [1] came out at 100%. For the same compound, the LC50 with Aphis craccivora [2] came to 9.75 µM.
Taken in the same sequence, the figures for `N#CC1=C(N)N2CCN(Cc3ccc(Cl)nc3)C2=C([N+](=O)[O-])C1c1ccc(Cl)cc1C(F)(F)F` (stereo unspecified) were 100% and 61.6 µM.
Take `Cc1ccc(F)cc1C1C(C#N)=C(N)N2CCN(Cc3ccc(Cl)nc3)C2=C1[N+](=O)[O-]` (stereo unspecified): the mortality at 500 µg/mL with Aphis craccivora [1] came to 100%. The LC50 in the assay on Aphis craccivora [2] is 96.1 µM.
Take `Cc1cc(C2C(C#N)=C(N)N3CCN(Cc4ccc(Cl)nc4)C3=C2[N+](=O)[O-])c(Br)cc1F` (stereo unspecified): the mortality at 500 µg/mL in the assay with Aphis craccivora [1] was 75.9%.
Regarding `Cc1ccc(C2C(C#N)=C(N)N3CCN(Cc4ccc(Cl)nc4)C3=C2[N+](=O)[O-])c(F)c1` (stereo unspecified), the mortality at 500 µg/mL in the assay with Aphis craccivora [1] was found to be 72.9%.
`N#CC1=C(N)N2CCN(Cc3ccc(Cl)nc3)C2=C([N+](=O)[O-])C1c1ccc(Br)cc1Cl` (stereo unspecified): the mortality at 500 µg/mL in the assay with Aphis craccivora [1] came out at 85%.
Still for that read-out and setting: for `N#CC1=C(N)N2CCN(Cc3ccc(Cl)nc3)C2=C([N+](=O)[O-])C1c1ccc(Cl)cc1F` (stereo unspecified) the value was 88%.
As for `N#CC1=C(N)N2CCN(Cc3ccc(Cl)nc3)C2=C([N+](=O)[O-])C1c1ccc(Cl)cc1Cl` (stereo unspecified), the mortality at 500 µg/mL in the assay on Aphis craccivora [1] amounted to 93.4%. Moreover, the LC50 with Aphis craccivora [2] was 133 µM.
Turning to `N#CC1=C(N)N2CCN(Cc3ccc(Cl)nc3)C2=C([N+](=O)[O-])C1c1cccc(Br)c1` (stereo unspecified), the mortality at 500 µg/mL with Aphis craccivora [1] came out at 91.8%. Further, the LC50 in the assay with Aphis craccivora [2] came to 197 µM.
Taken in the same sequence, the figures for `N#CC1=C(N)N2CCN(Cc3ccc(Cl)nc3)C2=C([N+](=O)[O-])C1c1ccc(OC(F)(F)F)cc1` (stereo unspecified) were 100% and 98 µM.
Take `N#CC1=C(N)N2CCN(Cc3ccc(Cl)nc3)C2=C([N+](=O)[O-])C1c1cccc(C#N)c1` (stereo unspecified): the mortality at 500 µg/mL in the assay with Aphis craccivora [1] is 80%.
In the case of `N#CC1=C(N)N2CCN(Cc3ccc(Cl)nc3)C2=C([N+](=O)[O-])C1c1ccc(C#N)cc1` (stereo unspecified), in the assay with Aphis craccivora [1], the mortality at 500 µg/mL was 93.7%. The LC50 in the assay on Aphis craccivora [2] is 175 µM.
The matching figures for `N#CC1=C(N)N2CCN(Cc3ccc(Cl)nc3)C2=C([N+](=O)[O-])C1c1cccc([N+](=O)[O-])c1` (stereo unspecified): 91.9% and 79 µM.
Take `N#CC1=C(N)N2CCN(Cc3ccc(Cl)nc3)C2=C([N+](=O)[O-])C1c1ccc([N+](=O)[O-])cc1` (stereo unspecified): the mortality at 500 µg/mL with Aphis craccivora [1] came out at 77%.
Still for that read-out and setting: as for `O=[N+]([O-])/N=C1\NCCN1Cc1ccc(Cl)nc1` [IMIDACLOPRID], the figure is 100%.
